Where two headings read alike, the source gives them in different places.

Results on one compound are retold here after patent US20150050677A1, “METHODS AND SYSTEMS FOR MEASURING WHOLE BLOOD PLATELET REACTIVITY” (University of Massachusetts Medical School, priority 2013, published 2015).

Assay [1] has as its system ADP-induced platelet aggregation. As to conditions: P<0.0001. As to the method:
After collection of baseline blood samples but prior to coronary angiography, subjects were administered a loading dose of 300-600 mg clopidogrel. Percutaneous coronary intervention (PCI) was performed at the same time on an ad hoc basis at the discretion of the treating physician. Patients were excluded from further analysis if a glycoprotein IIb/IIIa antagonist was used during PCI.
Blood samples were collected at baseline, prior to clopidogrel administration, and 6-24 hours later, after the catheterization procedure. After discarding the first 10 ml, blood was collected into siliconized glass vacutainers containing 3.2% sodium citrate (for platelet function testing and measurement of fibrinogen and vonWillebrand factor antigen) or EDTA-containing vacutainers (for complete blood counts). The samples were maintained at room temperature and hand-delivered to the laboratory where platelet function analyses were performed within 60 minutes of collection. Aliquots of centrifuged platelet-poor plasma and serum were stored at −70° C. until batch analyzed.
Citrated blood was centrifuged to obtain platelet-rich plasma (PRP) and adjusted to a final platelet count of 180,000 mm^−3 as previously described. […]

For assay [2] the test system is unchanged. As to conditions: for Number of subjects with clopidogrel HTPR by original PRU: post-clopidogrel.
The test system of assay [3] is maximal platelet reactivity (iso-TRAP-induced platelet activation). As to conditions: 6-24 hours after 300-600 mg clopidogrel loading; pre-clopidogrel 279±47; p<0.0001; mean±SD.
Assay [4] relates to platelet reactivity (PRU). As to conditions: PRU value >208; of the 3283 patients screened; cited from earlier work.
For assay [5], the system named is platelet reactivity (PRU). As to conditions: PRU≧235; of the 1213 patients in the assay-guided group; cited from earlier work.

Regarding `COC(=O)[C@H](c1ccccc1Cl)N1CCc2sccc2C1` [clopidogrel], the “median aggregation by WBA after clopidogrel loading” value in assay [1] (10 μM ADP, fell from 16 (IQR;11,24)) was 4 (IQR; 0,12) ohms. Also, the “median aggregation by LTA after clopidogrel loading” value in assay [1] (20 μM ADP, fell from 84 (IQR;71, 94)) was 52 (IQR;37,70) percent. The “mean VerifyNow PRU following clopidogrel loading” value in assay [2] (6-24 hours after 300-600 mg clopidogrel loading, pre-clopidogrel 287±56, p<0.0001, mean±SD) is listed as 179±90 PRU. Moreover, the “Number of subjects with clopidogrel HTPR by Corrected PRU” value is reported as 46 (48%) subjects (%) in assay [2] (PRU threshold ≧178, PRU corrected for hematocrit (7.5 PRU per percent around 42%)); 33 (34%) subjects (%) in assay [2] (PRU threshold ≧208, PRU corrected for hematocrit); 21 (22%) subjects (%) in assay [2] (PRU threshold ≧230, PRU corrected for hematocrit); 19 (20%) subjects (%) in assay [2] (PRU threshold ≧235, PRU corrected for hematocrit); 18 (19%) subjects (%) in assay [2] (PRU threshold ≧236, PRU corrected for hematocrit). In addition, the “Number of subjects with clopidogrel HTPR by original PRU” value is given as 50 (51%) subjects (%) in assay [2] (PRU threshold ≧178); 39 (40%) subjects (%) in assay [2] (PRU threshold ≧208); 31 (32%) subjects (%) in assay [2] (PRU threshold ≧230); 30 (31%) subjects (%) in assay [2] (PRU threshold ≧235); 30 (31%) subjects (%) in assay [2] (PRU threshold ≧236). For the same compound, the “change in PRU following clopidogrel loading (mean PRU)” value in assay [2] (subjects with anemia) is 106±89 PRU; in assay [2] (subjects without anemia, p=0.96 vs anemia), 107±85 PRU. The “mean BASE following clopidogrel loading” value in assay [3] amounted to 298±53 Base units. For the same compound, the “patients classified as having HTPR” value in assay [4] is 625 patients. Further, in assay [5], the “patients with clopidogrel HTPR” value is 419 (35%) patients (%).
